# Assay results taken from patent US10544143B2, “4-azaindole compounds” (BRISTOL-MYERS SQUIBB COMPANY, priority 2017, dated 2020).
# Read-outs that look alike come from different tables or passages of the source.
# Assays:
# [1] = molecular target: human TLR9 (Homo sapiens (Human), UniProt Q9NR96); assay: TLR9 inhibition reporter assay (HEK-Blue SEAP); conditions: read-out: TLR9 IC50;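 further: SEAP driven by an IFN-β minimal promoter with NF-κB and AP-1 sites, read after 22 h, compounds dosed 0.05 nM–50 µM, inhibition scaled between agonist plus DMSO and reference-inhibitor wells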
# human TLR9, sequence (Q9NR96 26-1032): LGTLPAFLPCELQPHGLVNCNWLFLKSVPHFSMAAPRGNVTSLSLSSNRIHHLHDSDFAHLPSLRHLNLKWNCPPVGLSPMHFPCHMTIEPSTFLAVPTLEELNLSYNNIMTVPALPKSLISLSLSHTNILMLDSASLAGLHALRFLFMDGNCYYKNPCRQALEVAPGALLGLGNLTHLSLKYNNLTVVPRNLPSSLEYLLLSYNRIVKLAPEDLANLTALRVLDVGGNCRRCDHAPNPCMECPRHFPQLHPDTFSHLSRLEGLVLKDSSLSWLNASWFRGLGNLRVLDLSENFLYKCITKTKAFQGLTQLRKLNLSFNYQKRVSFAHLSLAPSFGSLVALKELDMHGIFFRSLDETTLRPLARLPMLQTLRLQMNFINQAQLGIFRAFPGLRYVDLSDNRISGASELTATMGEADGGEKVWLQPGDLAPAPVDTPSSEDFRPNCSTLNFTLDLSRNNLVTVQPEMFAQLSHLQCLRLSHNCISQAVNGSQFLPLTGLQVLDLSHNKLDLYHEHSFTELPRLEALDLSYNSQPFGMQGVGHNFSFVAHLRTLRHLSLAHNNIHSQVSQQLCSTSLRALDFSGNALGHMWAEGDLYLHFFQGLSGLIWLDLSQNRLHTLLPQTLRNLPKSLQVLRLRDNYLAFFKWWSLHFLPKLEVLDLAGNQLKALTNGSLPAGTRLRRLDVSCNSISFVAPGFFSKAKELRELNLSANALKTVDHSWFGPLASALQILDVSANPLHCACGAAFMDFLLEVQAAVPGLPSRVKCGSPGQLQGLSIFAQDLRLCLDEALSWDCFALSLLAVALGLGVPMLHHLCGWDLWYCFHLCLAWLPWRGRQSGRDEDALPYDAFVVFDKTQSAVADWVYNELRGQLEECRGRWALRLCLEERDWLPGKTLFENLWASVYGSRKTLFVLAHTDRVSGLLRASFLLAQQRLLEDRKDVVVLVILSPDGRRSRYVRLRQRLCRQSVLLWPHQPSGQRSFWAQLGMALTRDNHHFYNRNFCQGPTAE
# [2] = molecular target: human TLR7 (Homo sapiens (Human), UniProt Q9NYK1); assay: TLR7 inhibition reporter assay (HEK-Blue SEAP); assay type: cell-based
# human TLR7, sequence (Q9NYK1 27-1049): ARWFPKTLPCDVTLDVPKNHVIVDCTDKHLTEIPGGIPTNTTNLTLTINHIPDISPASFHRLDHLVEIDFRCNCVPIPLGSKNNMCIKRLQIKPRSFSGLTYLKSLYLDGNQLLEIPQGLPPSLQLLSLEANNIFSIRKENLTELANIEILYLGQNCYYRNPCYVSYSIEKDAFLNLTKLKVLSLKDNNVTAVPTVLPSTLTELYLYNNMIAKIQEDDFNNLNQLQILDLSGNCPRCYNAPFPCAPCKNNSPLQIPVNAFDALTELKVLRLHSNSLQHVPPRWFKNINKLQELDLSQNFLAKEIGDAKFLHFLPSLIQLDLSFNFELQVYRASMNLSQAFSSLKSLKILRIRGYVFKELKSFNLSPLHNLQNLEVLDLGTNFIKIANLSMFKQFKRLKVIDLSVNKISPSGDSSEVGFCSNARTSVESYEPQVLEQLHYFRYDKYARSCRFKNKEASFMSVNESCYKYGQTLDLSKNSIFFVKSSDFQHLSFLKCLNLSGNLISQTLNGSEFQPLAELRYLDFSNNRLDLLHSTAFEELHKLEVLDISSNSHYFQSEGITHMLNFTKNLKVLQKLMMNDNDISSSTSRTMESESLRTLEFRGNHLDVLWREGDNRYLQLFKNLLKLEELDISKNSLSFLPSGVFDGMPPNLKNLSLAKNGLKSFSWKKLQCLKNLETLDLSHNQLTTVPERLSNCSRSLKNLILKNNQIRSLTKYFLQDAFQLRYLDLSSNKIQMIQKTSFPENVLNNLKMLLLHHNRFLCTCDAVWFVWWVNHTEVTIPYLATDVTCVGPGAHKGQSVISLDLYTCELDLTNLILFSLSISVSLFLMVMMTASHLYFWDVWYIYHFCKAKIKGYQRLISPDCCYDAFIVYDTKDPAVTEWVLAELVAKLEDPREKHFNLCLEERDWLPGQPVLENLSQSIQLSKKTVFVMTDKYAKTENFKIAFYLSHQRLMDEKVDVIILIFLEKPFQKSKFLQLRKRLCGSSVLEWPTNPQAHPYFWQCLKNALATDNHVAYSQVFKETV
# [3] = molecular target: human TLR8 (Homo sapiens (Human), UniProt Q9NR97); assay: TLR8 inhibition reporter assay (HEK-Blue SEAP); conditions: read-out: TLR8 IC50;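 further: SEAP driven by IFN-β minimal promoter carrying NF-κB and AP-1 sites, compounds dosed 0.05 nM to 50 µM for 22 h, inhibition scaled between agonist-plus-DMSO and reference-inhibitor wells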
# human TLR8, sequence (Q9NR97 27-1041): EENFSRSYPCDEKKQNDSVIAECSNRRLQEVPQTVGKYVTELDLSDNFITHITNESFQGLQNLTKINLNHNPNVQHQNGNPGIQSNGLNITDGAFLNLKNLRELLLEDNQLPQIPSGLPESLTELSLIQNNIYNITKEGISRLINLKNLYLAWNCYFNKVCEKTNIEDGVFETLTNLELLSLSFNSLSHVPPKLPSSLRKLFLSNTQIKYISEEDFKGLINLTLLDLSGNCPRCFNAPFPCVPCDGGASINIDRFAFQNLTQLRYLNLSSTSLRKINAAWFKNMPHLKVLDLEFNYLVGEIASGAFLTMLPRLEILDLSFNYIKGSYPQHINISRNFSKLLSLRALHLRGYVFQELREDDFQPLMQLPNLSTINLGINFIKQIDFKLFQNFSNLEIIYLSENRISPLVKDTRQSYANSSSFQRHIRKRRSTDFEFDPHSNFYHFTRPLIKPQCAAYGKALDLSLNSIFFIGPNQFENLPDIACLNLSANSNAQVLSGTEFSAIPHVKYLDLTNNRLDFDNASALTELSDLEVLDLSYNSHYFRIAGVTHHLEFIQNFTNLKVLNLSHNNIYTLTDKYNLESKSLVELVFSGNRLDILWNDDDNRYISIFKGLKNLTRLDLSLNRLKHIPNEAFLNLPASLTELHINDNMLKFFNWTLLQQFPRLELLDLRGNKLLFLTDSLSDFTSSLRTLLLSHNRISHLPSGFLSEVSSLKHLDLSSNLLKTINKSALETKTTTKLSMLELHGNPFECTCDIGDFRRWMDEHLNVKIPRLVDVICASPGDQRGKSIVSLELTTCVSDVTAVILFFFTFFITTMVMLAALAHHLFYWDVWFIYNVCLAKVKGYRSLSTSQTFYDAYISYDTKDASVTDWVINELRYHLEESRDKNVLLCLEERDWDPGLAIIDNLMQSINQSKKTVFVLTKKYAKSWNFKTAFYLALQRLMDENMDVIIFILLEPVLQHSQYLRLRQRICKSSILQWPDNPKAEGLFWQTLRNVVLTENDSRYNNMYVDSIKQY
# [4] = HEK-Blue cells overexpressing human TLR9, ODN2006 5 nM stimulation, SEAP reporter
# [5] = HEK-Blue cells overexpressing human TLR7, gardiquimod 7.5 μM stimulation, SEAP reporter
# [6] = HEK-Blue cells overexpressing human TLR8, R848 15.9 μM stimulation, SEAP reporter
# [7] = HEK-Blue cells overexpressing human TLR9, SEAP reporter, ODN2006 5 nM
# [8] = HEK-Blue cells overexpressing human TLR7, SEAP reporter, gardiquimod 7.5 μM
# [9] = HEK-Blue cells overexpressing human TLR8, SEAP reporter, R848 15.9 μM
# [10] = HEK-Blue human TLR9 cells, ODN2006 5 nM
# [11] = HEK-Blue human TLR7 cells, gardiquimod 7.5 μM
# [12] = HEK-Blue human TLR8 cells, R848 15.9 μM
SMILES,"IC50 [1, 4]","IC50 [2, 5]","IC50 [3, 6]","IC50 [1, 7]","IC50 [2, 8]","IC50 [3, 9]",further results
COc1cc(-c2[nH]c3ccc(C4CCC(N(CC#N)C5COC5)CC4)nc3c2C(C)C)cn2ncnc12 (stereo not drawn) [Example 277],1.38 µM,0.0004 µM,0.0016 µM,–,–,–,–
Cc1c(-c2[nH]c3ccc(C4CCC(NCCS(C)(=O)=O)CC4)nc3c2C(C)C)cn2ncnc2c1C (stereo not drawn) [Example 450],–,–,–,1.19 µM,0.00061 µM,0.00071 µM,–
Cc1cc(-c2[nH]c3ccc(C4CCN(C(=O)CN(C)C)CC4)nc3c2C(C)C)cn2ncnc12 [Example 550],–,–,–,0.796 µM,0.00087 µM,0.015 µM,–
"COc1cc(-c2[nH]c3ccc(OC4CCN(CC(=O)N(C)C)CC4)nc3c2C(C)C)cn2ncnc12 [Example 609, 2-(4-((3-isopropyl-2-(8-methoxy-[1,2,4]triazolo[1,5-a]pyridin-6-yl)-1H-pyrrolo[3,2-b]pyridin-5-yl)oxy)piperidin-1-yl)-N,N-dimethylacetamide]",–,–,–,2.72 µM,0.0026 µM,0.023 µM,–
COc1cc(-c2[nH]c3ccc(CCC4CNC4)nc3c2C(C)C)cn2ncnc12 [Example 697],–,–,–,0.919 µM,0.02 µM,0.111 µM,–
Cc1c(-c2[nH]c3ccc(N4C[C@@H](C)N(CC(N)=O)C[C@H]4C)nc3c2C(C)C)cn2ncnc2c1C [Example 800],–,–,–,–,–,–,"IC50 [1, 10]: > 50 µM; IC50 [2, 11]: 0.02 µM; IC50 [3, 12]: 0.026 µM"
COc1cc(-c2[nH]c3ccc(C4CCC(NCC(=O)N(C)C)CC4)nc3c2C(C)C)cn2ncnc12 (stereo not drawn) [Example 181],0.561 µM,0.0017 µM,0.013 µM,–,–,–,–
Cc1c(-c2[nH]c3ccc(N4CCN(CCC(N)=O)CC4)nc3c2C(C)C)cn2ncnc2c1C [Example 149],19.5 µM,0.0093 µM,0.0004 µM,–,–,–,–
Cc1c(-c2[nH]c3ccc(C4CCC(N5CC6(CCS6(=O)=O)C5)CC4)nc3c2C(C)C)cn2ncnc2c1C (stereo not drawn) [Example 1077],–,–,–,–,–,–,"IC50 [1, 10]: 21.8 µM; IC50 [2, 11]: 0.018 µM; IC50 [3, 12]: 0.038 µM"
Cc1cc2[nH]c(-c3cc(C)c4ncnn4c3)c(C(C)C)c2nc1C1CCN(C2CCOCC2)CC1 [Example 575],–,–,–,1.35 µM,0.00044 µM,0.121 µM,–
COc1cc(-c2[nH]c3ccc(C4CCC(N5CCC(F)C5)CC4)nc3c2C(C)C)cn2ncnc12 (stereo not drawn) [Example 1072],–,–,–,–,–,–,"IC50 [1, 10]: 5.84 µM; IC50 [2, 11]: 0.0029 µM; IC50 [3, 12]: 0.035 µM"
Cc1c(-c2[nH]c3ccc(N4CC(N(C)C(=O)CN(C)C)C4)nc3c2C(C)C)cn2ncnc2c1C [Example 25],11.7 µM,0.181 µM,0.117 µM,–,–,–,–
Cc1c(-c2[nH]c3ccc(C4CCC(NC5CCS(=O)(=O)CC5)CC4)nc3c2C(C)C)cn2ncnc2c1C (stereo not drawn) [Example 1043],–,–,–,–,–,–,"IC50 [1, 10]: 1.75 µM; IC50 [2, 11]: 0.0021 µM; IC50 [3, 12]: 0.0016 µM"
Cc1cc(-c2[nH]c3ccc(C4CCC(NCC(=O)N(C)C)CC4)nc3c2C(C)C)cn2ncnc12 (stereo not drawn) [Example 280],1.27 µM,0.0011 µM,0.0072 µM,–,–,–,–
Cc1c(-c2[nH]c3ccc(N4CCCNCC4)nc3c2C(C)C)cn2ncnc2c1C [Example 162],23.1 µM,0.0028 µM,0.0028 µM,–,–,–,–
COc1cc(-c2[nH]c3ccc(C4CC(N(C)CCS(C)(=O)=O)C4)nc3c2C(C)C)cn2ncnc12 (stereo not drawn) [Example 642],–,–,–,18.1 µM,0.014 µM,0.026 µM,–
Cc1c(-c2[nH]c3ccc(C4CCC(NC5CCOCC5)CC4)nc3c2C(C)C)cn2ncnc2c1C (stereo not drawn) [Example 451],–,–,–,1.04 µM,0.00048 µM,0.00063 µM,–
"CCCN(CCC)C1CCC(Oc2ccc3[nH]c(-c4cc(OC)c5ncnn5c4)c(C(C)C)c3n2)CC1 (stereo not drawn) [Example 611, 4-((3-isopropyl-2-(8-methoxy-[1,2,4]triazolo[1,5-a]pyridin-6-yl)-1H-pyrrolo[3,2-b]pyridin-5-yl)oxy)-N,N-dipropylcyclohexan-1-amine]",–,–,–,1.93 µM,0.0084 µM,0.017 µM,–
Cc1c(-c2[nH]c3ccc(C4CCC(NCCS(C)(=O)=O)CC4)nc3c2C(C)C)cn2ncnc2c1C (stereo not drawn) [Example 452],–,–,–,3.09 µM,0.0027 µM,0.0044 µM,–
Cc1c(-c2[nH]c3ccc(N4CCN(C(=O)CNCC5CC5)CC4)nc3c2C(C)C)cn2ncnc2c1C [Example 161],5.92 µM,0.0014 µM,0.00092 µM,–,–,–,–
Cc1c(-c2[nH]c3ccc(N4CCN(C(=O)CN5CC(C)(O)C5)CC4)nc3c2C(C)C)cn2ncnc2c1C [Example 946],–,–,–,–,–,–,"IC50 [1, 10]: 8.95 µM; IC50 [2, 11]: 0.0014 µM; IC50 [3, 12]: 0.0018 µM"
CCN(C)CC(=O)N1CCN(c2ccc3[nH]c(-c4cn5ncnc5c(C)c4C)c(C(C)C)c3n2)C[C@@H]1C [Example 897],–,–,–,–,–,–,"IC50 [1, 10]: 12 µM; IC50 [2, 11]: 0.00086 µM; IC50 [3, 12]: 0.0015 µM"
COC1CN(C2CCC(c3ccc4[nH]c(-c5cn6ncnc6c(C)c5C)c(C(C)C)c4n3)CC2)C1 (stereo not drawn) [Example 1042],–,–,–,–,–,–,"IC50 [1, 10]: 3.32 µM; IC50 [2, 11]: 0.0022 µM; IC50 [3, 12]: 0.0033 µM"

SMILES,"IC50 [1, 4]","IC50 [2, 5]","IC50 [3, 6]","IC50 [1, 7]","IC50 [2, 8]","IC50 [3, 9]",further results
Cc1c(-c2[nH]c3ccc(CCC4CN(CC5(C)COC5)C4)nc3c2C(C)C)cn2ncnc2c1C [Example 702],–,–,–,2.23 µM,0.041 µM,0.014 µM,–
Cc1c(-c2[nH]c3ccc(C4CCC(NCC(C)(C)S(C)(=O)=O)CC4)nc3c2C(C)C)cn2ncnc2c1C (stereo not drawn) [Example 455],–,–,–,9.2 µM,0.014 µM,0.012 µM,–
Cc1c(-c2[nH]c3ccc(N4C[C@H](C)N(C(C)C)C[C@@H]4C)nc3c2C(C)C)cn2ncnc2c1C [Example 793],–,–,–,7.83 µM,0.0014 µM,0.0014 µM,–
CC(=O)N(C)C1CCC(c2ccc3[nH]c(-c4cn5ncnc5c(C)c4C)c(C(C)C)c3n2)CC1 (stereo not drawn) [Example 439],–,–,–,24.2 µM,0.0035 µM,0.032 µM,–
Cc1c(-c2[nH]c3ccc(C4CCC(N5CCC[C@H]5CO)CC4)nc3c2C(C)C)cn2ncnc2c1C (stereo partly drawn) [Example 393],0.36 µM,0.00047 µM,0.0013 µM,–,–,–,–
Cc1c(-c2[nH]c3ccc(C4CCC(N(CCC#N)C5CC5)CC4)nc3c2C(C)C)cn2ncnc2c1C (stereo not drawn) [Example 428],–,–,–,9.86 µM,0.0074 µM,0.0064 µM,–
"COc1cc(-c2[nH]c3ccc(OC4CN(C5CCOCC5)C4)nc3c2C(C)C)cn2ncnc12 [Example 595, 6-(3-isopropyl-5-((1-(tetrahydro-2H-pyran-4-yl)azetidin-3-yl)oxy)-1H-pyrrolo[3,2-b]pyridin-2-yl)-8-methoxy-[1,2,4]triazolo[1,5-a]pyridine]",–,–,–,10.9 µM,0.122 µM,> 3.12 µM,–
Cc1c(-c2[nH]c3ccc(N4CCN(CC(=O)N(C)C)CC4=O)nc3c2C(C)C)cn2ncnc2c1C [Example 141],> 50 µM,0.134 µM,0.148 µM,–,–,–,–
Cc1c(-c2[nH]c3ccc(C4CCN(CC(=O)N(C)C)CC4)nc3c2C(C)C)cn(C)c(=O)c1C [Example 545],–,–,–,2.46 µM,0.022 µM,0.0075 µM,–
Cc1c(-c2[nH]c3ccc(N4CCN(C(=O)CC(C)(C)N5CC6(COC6)C5)CC4)nc3c2C(C)C)cn2ncnc2c1C [Example 945],–,–,–,–,–,–,"IC50 [1, 10]: 7.85 µM; IC50 [2, 11]: 0.0048 µM; IC50 [3, 12]: 0.00094 µM"
Cc1c(-c2[nH]c3ccc(C4CCC(NCC(C)(C)S(C)(=O)=O)CC4)nc3c2C(C)C)cn2ncnc2c1C (stereo not drawn) [Example 454],–,–,–,2.39 µM,0.0012 µM,0.00068 µM,–
COc1ncc(CN(C)C2CCN(c3ccc4[nH]c(-c5cn6ncnc6c(C)c5C)c(C(C)C)c4n3)CC2)cn1 [Example 67],0.963 µM,0.00098 µM,0.00042 µM,–,–,–,–
Cc1c(-c2[nH]c3ccc(N4CCN(C(=O)CNC5CCC5)CC4)nc3c2C(C)C)cn2ncnc2c1C [Example 156],6.75 µM,0.0015 µM,0.00079 µM,–,–,–,–
COc1cc(-c2[nH]c3cc(F)c(C4CCC(NC5COC5)CC4)nc3c2C(C)C)cn2ncnc12 (stereo not drawn) [Example 346],6.29 µM,0.00032 µM,0.006 µM,–,–,–,–
COc1cc(-c2[nH]c3ccc(C4CC(N(C)C(=O)CN(C)C)C4)nc3c2C(C)C)cn2ncnc12 (stereo not drawn) [Example 625],–,–,–,0.978 µM,0.00072 µM,0.01 µM,–
Cc1c(-c2[nH]c3ccc(C4CC5(C4)CN(CC4(C)COC4)C5)nc3c2C(C)C)cn2ncnc2c1C [Example 1025],–,–,–,–,–,–,"IC50 [1, 10]: 5.86 µM; IC50 [2, 11]: 0.003 µM; IC50 [3, 12]: 0.00086 µM"
CCN(C)C1CCC(c2ccc3[nH]c(-c4cn5ncnc5c(C)c4C)c(C(C)C)c3n2)CC1 (stereo not drawn) [Example 390],3.09 µM,0.0016 µM,0.0076 µM,–,–,–,–
Cc1c(-c2[nH]c3ccc(C4CCN(C(=O)CN(C)C)CC4)nc3c2C(C)C)cn2ncnc2c1C [Example 551],–,–,–,0.582 µM,0.00094 µM,0.0055 µM,–
CCN(CC(=O)N(C)C)C1CCC(c2nc3c(C(C)C)c(-c4cn5ncnc5c(C)c4C)[nH]c3cc2F)CC1 (stereo not drawn) [Example 509],–,–,–,9.11 µM,0.017 µM,0.03 µM,–
Cc1c(-c2[nH]c3ccc(C4CCC(N(C)CC(N)=O)CC4)nc3c2C(C)C)cn2ncnc2c1C (stereo not drawn) [Example 398],–,–,–,4.12 µM,0.0038 µM,0.017 µM,–
COc1cc(-c2[nH]c3ccc(CCC4CN(CCS(C)(=O)=O)C4)nc3c2C(C)C)cn2ncnc12 [Example 698],–,–,–,1 µM,0.012 µM,0.028 µM,–
COc1cc(-c2[nH]c3ccc(C4CCC(NCc5cnco5)CC4)nc3c2C(C)C)cn2ncnc12 (stereo not drawn) [Example 206],2.39 µM,0.0095 µM,0.022 µM,–,–,–,–
CC(C)c1c(-c2cn(C)c3ncccc23)[nH]c2ccc(C3CCC(N4CC5(C4)CS(=O)(=O)C5)CC3)nc12 (stereo not drawn) [Example 255],0.218 µM,0.0006 µM,0.00025 µM,–,–,–,–
